Data reported in the OPERA property sets (Mansouri et al. 2018).

logP | SMILES
3.91 | Cc1ccc(S(=O)(=O)Nc2ccc3nn(C4CCCC4)nc3c2)cc1
3.87 | COc1cc(C(=O)Nc2ccc3nn(C4CCCC4)nc3c2)cc(OC)c1OC
3.82 | O=[N+]([O-])c1ccc(S(=O)(=O)Nc2ccc3nn(C4CCCC4)nc3c2)cc1
4.11 | O=C(Nc1ccc2nn(C3CCCC3)nc2c1)c1ccc(Cl)cc1
3.43 | CCOC(=O)Nc1ccc2nn(C3CCCC3)nc2c1
3.4 | O=C(Nc1ccc2nn(C3CCCC3)nc2c1)C(Cl)Cl
2.48 | Nc1ccc(S(=O)(=O)Nc2ccc3nn(C4CCCC4)nc3c2)cc1
3.75 | O=C(Nc1ccc2nn(C3CCCC3)nc2c1)c1ccc([N+](=O)[O-])cc1
5.32 | O=C(Nc1ccc2nn(C3CCCC3)nc2c1)c1ccc(Cl)c(Cl)c1
4.95 | O=C(Nc1ccc2nn(C3CCCC3)nc2c1)c1ccc(C(F)(F)F)cc1
2.44 | CS(=O)(=O)Nc1ccc2nn(C3CCCC3)nc2c1
2.78 | O=C(CCl)Nc1ccc2nn(C3CCCC3)nc2c1
2.45 | CC(=O)Nc1ccc2nn(C3CCCC3)nc2c1
3.85 | O=C(Nc1ccc2nn(C3CCCC3)nc2c1)c1ccccc1
4.12 | O=C(Nc1ccc2nn(C3CCCC3)nc2c1)C(Cl)(Cl)Cl
3.4 | CC(C)(C)C(=O)Nc1ccc2nn(C3CCCC3)nc2c1
4.28 | CC(C)COC(=O)Nc1ccc2nn(C3CCCC3)nc2c1
